Measured values from article PMC9878342, “Gossypol acetate: A natural polyphenol derivative with antimicrobial activities against the essential cell division protein FtsZ” (Frontiers in Microbiology, 2023).

Target: T1, FtsZ (SaFtsZ) (Staphylococcus aureus, UniProt P0A031)
T1 construct: 6× His-FtsZ (N-terminal 6× His tag)
T1 sequence (P0A031 1-390): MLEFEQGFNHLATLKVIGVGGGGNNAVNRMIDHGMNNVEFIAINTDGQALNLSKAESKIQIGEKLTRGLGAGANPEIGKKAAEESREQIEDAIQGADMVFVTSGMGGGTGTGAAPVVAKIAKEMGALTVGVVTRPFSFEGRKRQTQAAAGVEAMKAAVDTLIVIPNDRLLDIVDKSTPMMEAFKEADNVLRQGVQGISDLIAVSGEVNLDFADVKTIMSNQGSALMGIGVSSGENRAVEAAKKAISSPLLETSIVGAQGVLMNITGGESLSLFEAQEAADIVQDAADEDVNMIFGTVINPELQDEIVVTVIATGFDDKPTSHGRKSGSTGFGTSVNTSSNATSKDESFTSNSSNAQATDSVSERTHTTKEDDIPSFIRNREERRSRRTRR
Experiment: isothermal titration calorimetry; also GTPase inhibition and […]° light scattering
Format: binding

Molecule `Cc1cc2c(C(C)C)c(O)c(O)c(C=O)c2c(O)c1-c1c(C)cc2c(C(C)C)c(O)c(O)c(C=O)c2c1O` [S2303, Gossypol acetate] has a Kd of 3.6 ± 0.7 µM.
